Laboratory results published in paper PMC5847048 (Psychopharmacology, 2017).

Assays:
rats = tested on: rats; set-up: method as in Bretin et al. [2017]; details: acute administration, ref Bretin et al. [2017]; cited from earlier work
[1] = tested on: aged mice (18–19 months old); assay: Sequential/spontaneous alternation (SA) working memory task in T-maze; format: in vivo, mouse; details: ITI 90 s
Experimental: Treatments were administered per os daily for nine consecutive days for studies involving the CSD and SA tasks. The 8th and the 9th oral administrations were given 60 min before acquisition and test phases in the CSD task, or before the training and the test sessions in the SA task.
The spontaneous alternation (SA) task was performed in independent groups of mice as regards to the CSD and radial maze tasks. The SA task allows investigation of aged-induced working memory impairments (Vandesquille et al. [2011]). In this task, mice are submitted to a series of successive choices in a T-maze. To alternate from trial to trial, animals have to remember at each choice (except the first one) only the previous trial and to reset the interfering information from trial to trial over a series. This resetting mechanism is a main aspect of working memory (Aggleton et al. [1986]; Béracochéa and Jaffard, [1987]; Kesner [2005]).
Behavioral tests were conducted in a gray Plexiglas T-maze. Stem and arms are 35 cm long, 15 cm wide, and 10 cm high. The starting box (10 cm × 12 cm) and each goal arm are separated from the central alley by a vertical sliding door, with opening and closing monitored by a computer. Photoelectric cells allow recording of both the choice of the goal arm (left or right) and the latency (in seconds) that elapsed between the opening of the starting box and the closing of the goal box. The T-maze is located at the center of a room with various allocentric cues (white or black or striped card boards) located on the wall 1 m above the apparatus.
Animals were not food deprived, and no food reinforcement was used. Animals were first submitted to a habituation phase consisting of two free exploration sessions of 10 min each, over two consecutive days (one session per day) in the apparatus with all doors opened. At the end of the habituation phase, all animals were submitted to a training phase, involving a series of seven successive trials separated by a 30-s intertrial interval (ITI). The training phase was aimed at familiarizing the animals with the opening and closing of the doors.
For the training session, animals were submitted to a sequence of seven successive identical trials. At the beginning of a trial, mice were placed in the starting box and after a confinement period (30 s, predefined ITI), the door to the stem was opened. When the mouse entered one of the goal arms, the door was closed and the chosen arm was recorded. After a 30-s confinement period in the chosen arm, the mouse was gently returned to the starting box for a second trial, identical to the first one. To avoid olfactory cues in the apparatus, visible traces of urine were removed and the general procedure was implemented as in the training phase, except that the ITI was extended to 90 s and animals were submitted to a series of […] successive trials. […] Moreover, an 8th trial was added to the series which was separated from the 7th one by a 5-s ITI. […] The alternation score (in percentage) was used as an index of memory performance. An alternation is defined as a visit in a given arm followed by a visit into the other arm. The successive sequence of visits for the seven first trials determines the level of alternation. A percentage of alternation was calculated: number of alternations performed/number maximal of alternation. This percentage is calculated for each mouse.
For the sequential alternation task, mean and standard errors of the mean (SEM) were calculated for each group of treatment. In addition to % alternation drawn over the seven trials of the series, behavioral performances were also expressed in percentage of alternation drawn from blocks of two consecutive trials (block 1: trials 2 + 3; block 2: trials 4 + 5; block 3: trials 6 + 7). The analyses per trial blocks allowed evaluation of proactive interference over the series (Vandesquille et al. [2011], [2013]). Statistical analyses were performed using the Statview 5.0 software. […]

[2] = S 47445 0.01 mg/kg p.o. alone, n = 12
[3] = S 47445 0.03 mg/kg p.o. alone, n = 12
[4] = S 47445 0.3 mg/kg p.o. alone, n = 12
[5] = S 47445 1.0 mg/kg p.o. alone, n = 12

For `O=C1c2cc3nnn(CCc4cccc(F)c4)c(=O)c3cc2OCN1C1CC1` [S 47445], the “Episodic-like memory in object recognition” value (rats) is listed as “dose-related improvement”, the “Alternation score, 3rd block of trials (trials 6 + 7)” value (from here on “Alternation score, 3rd block”) [1, 2] is listed as 45.833 ± 9.650 n = 12% and the “Alternation score, seven first trials of the series” value (shortened to “Alternation score … of the series”) [1, 2] is listed as 59.722 ± 2.477 n = 12%. For the same molecule, the “Alternation score, 3rd block” value [1, 3] was 50.000 ± 8.704 n = 12%, the “Alternation score … of the series” value [1, 3] was 61.11 ± 4.738 n = 12% and the “Alternation score, 3rd block” value ([1]; S 47445 0.1 mg/kg p.o. alone, n = 12) was 70.833 ± 7.432 n = 12%. The “Alternation score … of the series” value ([1]; S 47445 0.1 mg/kg p.o. alone, n = 12, 0.1 mg/kg) was “alternated significantly above vehicles”, the “Alternation score … of the series” value ([1]; S 47445 0.1 mg/kg p.o. alone, n = 12, listed as S47445, 0.1 mg/kg) was 65.278 ± 3.815 n = 12 % and the “Alternation score, 3rd block” value [1, 4] was 50.000 ± 8.704 n = 12%. For the same molecule, the “Alternation score … of the series” value [1, 4] was 61.111 ± 2.369 n = 12%, the “Alternation score, 3rd block” value [1, 5] was 58.333 ± 8.333 n = 12% and the “Alternation score … of the series” value [1, 5] was 59.722 ± 3.217 n = 12%.
